From patent publication US20250136574A1, “SELECTIVE AGENTS TARGETING MYCOBACTERIUM TUBERCULOSIS” (priority 2022, published 2025) come the findings set out here.

Like-named read-outs stand apart in the source and are kept apart here. Marks after values point to notes of the source that are not given here.

The nature of one data set: PBS solubility. Particulars: highest concentration with no detectable precipitate; phosphate-buffered saline.
Data set [1] concerns wild-type (WT) Mtb Erdman strain. Kind of data set: MABA, Mtb Erdman strain. The data set is classed as cell-based. Particulars: Mycobacterium tuberculosis.
Data set [2] concerns wild-type (WT) Mtb HN878 strain. Kind of data set: MABA, Mtb HN878 strain. Particulars: Mycobacterium tuberculosis; read-out: IC50 ± S.D. (μM) HN878. The data set is classed as cell-based.
The next data set deals with wild-type (WT) Mtb. The format is cell-based, Mycobacterium tuberculosis.
Data set [3] in a line: CC50 cytotoxicity, Promega CellTiter-Glo Luminescent Cell Viability Assay. The settings on record: African green monkey, Vero cells; 72-hour incubation, CellTiter-Glo, n = 3. The format is cell-based, African green monkey. The procedure:
(§1) Cytotoxicity assays were conducted to measure toxicity of compounds at single concentration in Vero TMPRSS2 cells by using quantitation of ATP to indicate metabolically active cells. Vero cells (derived from African Green Monkey kidney epithelial tissue) were grown in Dulbecco's Modified Eagle Medium (DMEM) supplemented with 10% fetal bovine serum (FBS), 10 mM HEPES buffered saline, and 2 mM L-glutamine. 5,000 cells per well were seeded into a 96-well plate containing two-fold titrations of compounds. The concentration of DMSO was maintained at 0.5% for all wells to avoid toxicity. The plates were incubated for 72 hours, at which point they were acclimatized to room temperature for 30 minutes. 25 μL of the substrate/buffer solution from the Promega CellTiter-Glo Luminescent Cell Viability Assay kit was added to each well. The plates were shaken at a low orbital speed for 3 minutes and let rest at room temperature for 10 minutes, after which luminescence was measured using a BioTek Synergy H1 Microplate Reader H1M. The positive control was defined as wells containing cells without compounds.
(§2) Percent viability was input into PRISM GraphPad to calculate CC50 values by plotting as a non-linear regression curve.
(§3) Given the toxicity of an initial hit compound in mammalian cells and the potential concern for toxicity more generally with nitro-containing drugs, the selected compounds were also examined for toxicity in a mammalian cell line using Promega's Cell Titer-Glo assay to assess cellular ATP levels as a read-out of viability. […] A selectivity index (SI) was then calculated for each compound by determining the ratio of the CC50 in Vero cells to the MABA IC50 in Mtb, where the larger the SI, the safer the compound is in eukaryotic cells relative to its effective dose. […] Therefore, not only were the SAR efforts successful in identifying compounds with increased potency against Mtb, but also, the toxicity concerns of the original hit compound were overcome.
(In general: In ATP-based viability assays light output follows the ATP content of the culture.)

The test system of another data set is Vero cells. Described as above. The format is cell-based, African green monkey. Particulars: for selectivity index (SI): ratio of CC50 in Vero cells to MABA IC50 in Mtb; for CC50: 72-hour incubation, CellTiter-Glo, n = 3. The procedure:
as §1, §2, §3

Setting [4] is: read-out: IC50 ± S.D. (μM) Erdman.
Setting [5] is: read-out: IC50 S.D. (μM) Mtb Erdman strain.

As for `COC(=O)[C@H]1[C@H]2C[C@@H]3c4[nH]c5cc(OC)ccc5c4CCN3C[C@H]2C[C@@H](OC(=O)c2cc(OC)c(OC)c(OC)c2)[C@@H]1OC` [reserpine, reference compound], in the data set “PBS solubility”, the “PBS solubility (μM)” value was 7.8^[d] μM.
For orientation: IC50 means the concentration needed to halve the response being measured. Take `CCCCCCC#Cc1cncc(-c2nnc(SCc3ccc(Cl)cc3)n2C)c1` [drawing 92]: the IC50 turned out to be 1.5 ± 0.19 µM in data set [1] (setting [4]) and 0.85 ± 0.043 µM in data set [2].
`CCCCCCC#Cc1cncc(-c2nnc(SCc3cccc(Cl)c3)n2C)c1` [drawing 64 R = Cl] showed an IC50 in the data set with wild-type (WT) Mtb of 15 µM.
The same measure, in the same setting: then `CCCCCCC#Cc1cncc(-c2nnc(SCc3ccc(C)cc3)n2C)c1` [drawing 55 R = Me], with 6.1 µM; and `CCCC#Cc1cncc(-c2nnc(SCc3ccc(Cl)cc3)n2C)c1`, with 15 µM.
The CC50 is the concentration at which the toxic effect on the cells reaches its halfway point. Consider `CCCCCCC#Cc1cncc(-c2nnc(SCc3ccc(Cl)cc3)n2C2CC2)c1` [drawing 136], for which, in data set [1] (setting [5]), the IC50 worked out at 5.1 ± 0.7 µM. Moreover, the CC50 at 72 hour in data set [3] was 25 ± 2.5 µM. The “selectivity index (SI)” value with Vero cells is given as 4.8.
Regarding `Cn1c(SCc2ccc(Cl)cc2)nnc1-c1cncc(C#Cc2ccccc2)c1` [drawing 88], it took 4 µM to reach half-maximal inhibition with wild-type (WT) Mtb (IC50).
Same read-out and setting: then `CCCCCCC#Cc1cncc(-c2nnc(SCc3ccc(C#N)cc3)n2C)c1` [drawing 55 R = CN], with 8.9 µM.
With `CCCCCCC#Cc1cncc(-c2nnc(SCc3ccc([N+](=O)[O-])cc3[N+](=O)[O-])n2C)c1`, in data set [1] (setting [5]), the IC50 worked out at 1.1 ± 0.1 µM. The CC50 at 72 hour in data set [3] is 28 ± 1 µM. Moreover, in the data set on Vero cells, the “selectivity index (SI)” value worked out at 27.
`CCCCCCC#Cc1cncc(-c2nnc(SCc3cc(C(F)(F)F)cc(C(F)(F)F)c3)n2C)c1` displayed an IC50 in the data set on wild-type (WT) Mtb of more than 200 µM.
In the case of `CCCCCCC#Cc1cncc(-c2nnc(SCc3ccc([N+](=O)[O-])o3)n2C)c1` [drawing 135], in data set [1] (setting [5]), the IC50 worked out at 0.1 ± 0.01 µM. In data set [3], the CC50 at 72 hour is 33 ± 2.9 µM. Further, in the data set on Vero cells, the “selectivity index (SI)” value is listed as 314.
In the case of `CCCCCCC#Cc1cncc(-c2nnc(SCc3ccc([N+](=O)[O-])o3)n2C)c1` [nitrofuran bearing analog], in the data set on wild-type (WT) Mtb (text b333-b334, MABA), the “antimycobacterial activity (in words)” value is “most potent”.
With `CCCCCCC#Cc1cncc(-c2nnc(SCc3ccc(Cl)cc3)n2C)c1` [drawing 129], the IC50 in data set [1] (setting [5]) is 5.4 ± 0.5 µM. Also, in data set [3], the CC50 at 72 hour worked out at 50 ± 5.5 µM. In addition, the “selectivity index (SI)” value in the data set on Vero cells stood at 9.3.
As to `CCCCCCC#Cc1cncc(-c2nnc(SCc3ncc([N+](=O)[O-])n3C)n2C)c1`, 94 µM corresponded to half-maximal inhibition with wild-type (WT) Mtb (IC50).
On the same count and under the same terms, then `CCCCCCC#Cc1cncc(-c2nnc(SCc3ccc(-c4ccccc4)cc3)n2C)c1` [drawing 55 R = Ph], with 197 µM; and `C#Cc1cncc(-c2nnc(SCc3ccc(Cl)cc3)n2C)c1` [drawing 87], with 86 µM.
The same measure, in the same setting: to `CCCCCCC#Cc1cncc(-c2nnc(SCc3ccc(F)cc3)n2C)c1` [drawing 55 R = F] belongs 6.9 µM.
The same measure, in the same setting: to `CCCCCCC#Cc1cncc(-c2nnc(SCc3ccc(Cl)cc3)n2-c2ccccc2)c1` belongs more than 200 µM.
`CCCCCCC#Cc1cncc(-c2nnc(SCc3ccc(Cl)cc3)n2Cc2ccccc2)c1` had an IC50 in the data set on wild-type (WT) Mtb of more than 200 µM.
For the compound `CCCCCCC#Cc1cncc(-c2nnc(SCc3ccc([N+](=O)[O-])cc3)n2C)c1` [drawing 131], in data set [1] (setting [5]), the IC50 amounted to 22 ± 13 µM. In addition, in data set [3], the CC50 at 72 hour turned out to be 27 ± 5.4 µM. The “selectivity index (SI)” value in the data set on Vero cells is reported as 1.3.
As to `CCCCCCC#Cc1cncc(-c2nnc(SCc3cc(F)cc(F)c3)n2C)c1` [drawing 69], in the data set with wild-type (WT) Mtb, the midpoint of inhibition, the IC50, lay at 8 µM.
Same read-out and setting: to `CCCCCCC#Cc1cncc(-c2nnc(Sc3ccc(Cl)cc3)n2C)c1` belongs 13 µM; to `CCCCCCC#Cc1cncc(-c2nnc(SCc3ccc([N+](=O)[O-])o3)n2C)c1` [drawing 61], 0.55 µM.
With `CCCCCCC#Cc1cncc(-c2nnc(SCc3ccc(C#N)cc3)n2C)c1` [drawing 93], the IC50 was 5.3 ± 1.17 µM in data set [1] (setting [4]) and 2.3 ± 0.2 µM in data set [2].
Consider `CCCCCCC#Cc1cncc(-c2nnc(SCc3cc([N+](=O)[O-])cc([N+](=O)[O-])c3)n2C)c1` [3,5-dinitrobenzyl analog], for which the antimycobacterial activity with wild-type (WT) Mtb (text b333, MABA) stood at 0.5 µM.
Regarding `CCCCCCC#Cc1cncc(-c2nnc(SCc3ccc(C#N)cc3)n2C)c1` [drawing 130], the IC50 in data set [1] (setting [5]) amounted to 27 ± 0.4 µM. Moreover, in the data set on Vero cells, the CC50 is more than 100 µM and the “selectivity index (SI)” value was more than 3.7.
Consider `CCCCCCC#Cc1cncc(-c2nnc(SCc3ccc([N+](=O)[O-])cc3)n2C)c1` [drawing 94], for which the half-maximal inhibitory concentration (IC50) in data set [1] (setting [4]) is 2.9 ± 0.45 µM; in data set [2] it was 1.3 ± 0.15 µM.
In the data set on wild-type (WT) Mtb, `CCCCCCC#Cc1cncc(-c2nnc(SCCc3ccc(Cl)cc3)n2C)c1` showed an IC50 of 8.2 µM.
As for `CCCCCCC#Cc1ccc(-c2nnc(SCc3ccc(Cl)cc3)n2C)cn1`, the IC50 with wild-type (WT) Mtb is more than 200 µM.
On the same count and under the same terms, then `CCCCCCC#Cc1cncc(-c2nnc(SCc3ccc(Cl)cc3)n2CC)c1`, with 4.7 µM.
Consider `NNC(=O)c1ccncc1` [INH, isoniazid, reference compound], for which the IC50 in data set [1] (setting [4]) was 0.18 ± 0.014 µM; in data set [2], 0.12 ± 0.00051 µM.
Consider `Cn1c(SCc2ccc(Cl)cc2)nnc1-c1cncc(Br)c1`, for which the IC50 in the data set on wild-type (WT) Mtb is more than 200 µM.
Take `CCCCCCC#Cc1cncc(-c2nnc(SCc3ccc(Cl)cc3)n2C)c1` [drawing 51]: in the data set with wild-type (WT) Mtb, the IC50 stood at 5.3 µM.
Same read-out and setting: to `Cn1c(SCc2ccc(Cl)cc2)nnc1-c1cccnc1` belongs more than 200 µM; to `CCCCCCC#Cc1cncc(-c2nnc(SCc3ccc(Cl)c(Cl)c3)n2C)c1` [drawing 67], 6.8 µM.
Same read-out and setting: then `CCCCCCC#Cc1cncc(-c2nnc(SCc3ccc(Br)cc3)n2C)c1` [drawing 55 R = Br], with 4.6 µM; and `CCCCCCC#Cc1cncc(-c2nnc(SCc3ccc(OC)cc3)n2C)c1` [drawing 55 R = MeO], with 8.7 µM.
In the case of `CCCCCCC#Cc1cncc(-c2nnc(SCc3cc([N+](=O)[O-])cc([N+](=O)[O-])c3)n2C)c1` [drawing 95], the IC50 in data set [1] (setting [4]) came to 0.17 ± 0.016 µM; in data set [2] it was 0.061 ± 0.012 µM.
With `CCCCCCC#Cc1cncc(-c2nnc(SCc3ccc(Cl)c(F)c3)[nH]2)c1`, the IC50 in data set [1] (setting [5]) is 5.4 ± 0.03 µM. In addition, the CC50 at 72 hour in data set [3] is more than 125 µM. In the data set on Vero cells, the “selectivity index (SI)” value was more than 23.
In the data set on wild-type (WT) Mtb, `CCCCCCC#Cc1cncc(-c2nnc(SCc3ccc(Cl)cc3)n2C2CC2)c1` [drawing 77] gave a 50% inhibitory concentration (IC50) of 3.3 µM.
As to `CCCCCCC#Cc1cncc(-c2nnc(SCc3cc([N+](=O)[O-])cc([N+](=O)[O-])c3)n2C)c1` [drawing 133], in data set [1] (setting [5]), the IC50 is 0.34 ± 0.01 µM. Also, in the data set with Vero cells, the CC50 is more than 100 µM and the “selectivity index (SI)” value is recorded as more than 294.
`CCCCCCC#Cc1cncc(-c2nnc(SCc3ccc(Cl)cc3[N+](=O)[O-])n2C)c1` came in with an IC50 in the data set on wild-type (WT) Mtb of more than 200 µM.
On the same count and under the same terms, to `CCCCCCC#Cc1cncc(-c2nnc(SCc3ccc(C(F)(F)F)cc3)n2C)c1` [drawing 55 R = CF3] belongs 44 µM.
Consider `CCCCCCC#Cc1cncc(-c2nnc(SCc3cc([N+](=O)[O-])cc(C(F)(F)F)c3)n2C)c1`, for which the IC50 with wild-type (WT) Mtb is more than 200 µM.
Still for that read-out and setting: then `CCCCCCC#Cc1cncc(-c2nnc(SC)n2C)c1`, with 48 µM.
Regarding `Cn1c(SCc2ccc(Cl)cc2)nnc1-c1cncc(C#Cc2ccccc2)c1` [drawing 138], in data set [1] (setting [5]), the IC50 amounted to 2.2 ± 0.4 µM. In the data set on Vero cells, the CC50 was more than 100 µM and the “selectivity index (SI)” value is more than 46.
For `CCCCCCC#Cc1cncc(-c2nnc(SCc3ccc([N+](=O)[O-])o3)n2C2CC2)c1` [drawing 80], in the data set with wild-type (WT) Mtb, the 50% inhibitory concentration (IC50) is less than 0.78 µM.
In the data set with wild-type (WT) Mtb, `CCCCCCC#Cc1cncc(-c2nnc(SCc3ccc(Cl)cc3)n2CCCC)c1` yielded an IC50 of more than 200 µM.
On the same count and under the same terms, to `CCCCCCC#Cc1cccc(-c2nnc(SCc3ccc(Cl)cc3)n2C)c1` [drawing 84] belongs 8.5 µM.
For `CCCCCCC#Cc1cncc(-c2nnc(SCc3ccc([N+](=O)[O-])o3)n2C2CC2)c1` [drawing 137], in data set [1] (setting [5]), the IC50 was 0.05 ± 0.003 µM. In addition, the CC50 at 72 hour in data set [3] was determined as 7.8 ± 0.48 µM. The “selectivity index (SI)” value in the data set on Vero cells is 165.
As for `CCCCCCC#Cc1cncc(-c2nnc(SCc3ccc([N+](=O)[O-])cc3)n2C)c1` [drawing 55 R = NO2], the IC50 with wild-type (WT) Mtb was determined as 5.9 µM.
